Structures are written as SMILES. Read-outs that look alike come from different tables or passages of the source.

Experimental findings from PMC10218303, “Novel Polymyxin-Inspired Peptidomimetics Targeting the SARS-CoV-2 Spike:hACE2 Interface” (International Journal of Molecular Sciences, 2023) are described below.

The nature of data set [1]: in vitro. To be noted: human.
For data set [2], the system named is SARS-CoV-2 (strain Delta). As to the kind of experiment: microbe, parasite or virus in culture. To be noted: Severe acute respiratory syndrome coronavirus 2, 120 h, read-out: IC50 Delta.
Data set [3] in a line: in vitro. To be noted: human. The source holds these as a separate data set.
For data set [4], the system named is SARS-CoV-2 (strain 20A.EU2). As to the kind of experiment: microbe, parasite or virus in culture. To be noted: Severe acute respiratory syndrome coronavirus 2, 96 h, read-out: IC50 20A.EU2.
Data set [5] relates to SARS-CoV-2 (strain 20A.EU2). To be noted: strain 20A.EU2, 2 h.
Data set [6] has as its system SARS-CoV-2 (strain Delta). To be noted: for IC50: strain Delta, 2 h.

In the data set “in vitro [1]”, `N#C[C@@]1(c2ccc3c(N)ncnn23)O[C@H](CO)[C@@H](O)[C@H]1O` [GS-441524, reference compound] had a CC50 of more than 40 µM. The IC50 in data set [2] amounted to 2.3 µM.

Turning to `CCC(CC)COC(=O)[C@H](C)N[P@](=O)(OC[C@H]1O[C@@](C#N)(c2ccc3c(N)ncnn23)[C@H](O)[C@@H]1O)Oc1ccccc1` [remdesivir, reference compound], the CC50 in the data set “in vitro [3]” is 43 µM. The IC50 in data set [4] is 0.0044 µM.

In the case of `CC(=O)N[C@@H](CCC(=O)O)C(=O)N[C@H](C(=O)N[C@@H](CCN)C(=O)N[C@H]1CCNC(=O)[C@H](Cn2cc(CC(=O)N[C@@H](CC(C)C)C(=O)N[C@H]3CCNC(=O)[C@H]([C@@H](C)O)NC(=O)[C@H](CCN)NC(=O)[C@H](CCN)NC(=O)[C@H](CC(C)C)NC(=O)[C@@H](Cc4ccccc4)NC(=O)[C@H](Cc4c[nH]c5ccccc45)NC3=O)nn2)NC(=O)[C@H](CCN)NC(=O)[C@H](CCN)NC(=O)[C@H](Cc2ccc(O)cc2)NC(=O)[C@@H](Cc2ccccc2)NC(=O)[C@H](Cc2ccc(O)cc2)NC1=O)[C@@H](C)O` [dimer 7], the IC50 in data set [5] and in data set [6] was more than 50 µM in each case. Moreover, the “antiviral effect, in words” value in data set [6] is given as “a hint of antiviral effect”. For the same compound, the CC50 in the data set “in vitro [3]” and in “in vitro [1]” was more than 50 µM each time.

As to `CC(=O)N[C@@H](CCC(=O)O)C(=O)N[C@H](C(=O)N[C@@H](CCN)C(=O)N[C@H]1CCNC(=O)[C@H](Cn2cc(CC(=O)N[C@@H](CCN)C(=O)N[C@H]3CCNC(=O)[C@H]([C@@H](C)O)NC(=O)[C@H](CCN)NC(=O)[C@H](Cc4c[nH]c5ccccc45)NC(=O)[C@H](CC(C)C)NC(=O)[C@@H](Cc4ccccc4)NC(=O)[C@H](Cc4c[nH]c5ccccc45)NC3=O)nn2)NC(=O)[C@H](CCN)NC(=O)[C@H](CCN)NC(=O)[C@H](CC(C)C)NC(=O)[C@@H](Cc2ccccc2)NC(=O)[C@H](Cc2ccc(O)cc2)NC1=O)[C@@H](C)O` [dimer 10], the IC50 in data set [5] and in data set [6] was more than 50 µM throughout. Moreover, the CC50 in “in vitro [3]” and in the data set “in vitro [1]” was more than 50 µM throughout.

For the compound `CC[C@H](C)[C@@H]1NC(=O)[C@@H](NC(=O)[C@H](CCN)NC(=O)[C@@H](NC(=O)[C@H](CC(C)C)NC(C)=O)[C@@H](C)O)CCNC(=O)[C@H](Cn2cc(CCC(=O)N[C@@H](CCN)C(=O)N[C@H]3CCNC(=O)[C@H]([C@@H](C)O)NC(=O)[C@H](CCN)NC(=O)[C@H](Cc4c[nH]c5ccccc45)NC(=O)[C@H](CC(C)C)NC(=O)[C@@H](Cc4ccccc4)NC(=O)[C@H](Cc4ccc(O)cc4)NC3=O)nn2)NC(=O)[C@H](CCN)NC(=O)[C@H](CCN)NC(=O)[C@H](Cc2ccc(O)cc2)NC(=O)[C@@H](Cc2ccccc2)NC1=O` [dimer 4], the IC50 in data set [5] and in data set [6] was more than 50 µM each time. Besides, the CC50 in the data set “in vitro [3]” and in the data set “in vitro [1]” was more than 50 µM in each case.
